Measured values reported in article PMC8286840, “Identifying SARS-CoV-2 antiviral compounds by screening for small molecule inhibitors of Nsp3 papain-like protease” (Biochemical Journal, 2021).
Structures can show the parent of a compound that is named as a salt. Where two headings read alike, the source gives them in different places.

Assays:
[1] = target: T1, SARS-CoV-2 PLpro (nsp3 1564–1878) (Severe acute respiratory syndrome coronavirus 2, UniProt P0DTD1); experiment: biochemical; set-up: FRET-quenched peptide (Pro3) cleavage by PLpro, 10 min pre-incubation, slope over 20 min, normalised to no-compound control; conditions: read-out: % of control remaining
[2] = target: T1, SARS-CoV-2 PLpro (nsp3 1564–1878); experiment: biochemical; set-up: FRET-quenched peptide (Pro3) cleavage by PLpro, 10 min pre-incubation, slope over 20 min, normalised to no-compound control; conditions: read-out: % of control remaining; remark: listed apart in the source

Structure (SMILES): Cc1c(OCC(F)(F)F)ccnc1C[S+]([O-])c1nc2ccccc2[nH]1 (stereo not shown) [Lansoprazole]
- remaining activity at 1.25 µM ([1]; Well no.=1075, low concentration screen): 98.5%
- remaining activity at 3.75 µM ([2]; Well no.=1075, high concentration screen): 98.7%

Structure (SMILES): C=C(C)[C@H]1Cc2c(ccc3c2O[C@@H]2COc4cc(OC)c(OC)cc4[C@@H]2C3=O)O1 [Rotenone]
- remaining activity at 1.25 µM ([1]; Well no.=1494, low concentration screen): 97.2%
- remaining activity at 1.25 µM ([1]; Well no.=3142, low concentration screen): 104%
- remaining activity at 1.25 µM ([1]; Well no.=7122, low concentration screen): 91.7%
- remaining activity at 3.75 µM ([2]; Well no.=1494, high concentration screen): 98.9%
- remaining activity at 3.75 µM ([2]; Well no.=3142, high concentration screen): 98.6%
- remaining activity at 3.75 µM ([2]; Well no.=7122, high concentration screen): 89.8%

Structure (SMILES): OCCn1cc(-c2cnc3nnn(Cc4ccc5ncccc5c4)c3n2)cn1 [PF04217903]
- remaining activity at 1.25 µM ([1]; Well no.=2937, low concentration screen): 99.1%
- remaining activity at 3.75 µM ([2]; Well no.=2937, high concentration screen): 98.4%

Structure (SMILES): CN1[C@@H]2CC[C@H]1C[C@@H](OC(=O)C(CO)c1ccccc1)C2 (stereo partly shown) [Atropine (sulfate monohydrate)]
- remaining activity at 1.25 µM ([1]; Well no.=7677, low concentration screen): 93.8%
- remaining activity at 3.75 µM ([2]; Well no.=7677, high concentration screen): 94.5%

Structure (SMILES): O=c1c(O)c(-c2ccc(O)c(O)c2)oc2cc(O)cc(O)c12 [Quercetin]
- remaining activity at 1.25 µM ([1]; Well no.=5716, low concentration screen): 91.5%
- remaining activity at 3.75 µM ([2]; Well no.=5716, high concentration screen): 96%

Structure (SMILES): O=C(OCOC(=O)[C@H]1CCCN1C(=O)CCCCC(=O)N1CCC[C@@H]1C(=O)OCOC(=O)OC1CCOCC1)OC1CCOCC1 [amyloid P-IN-1]
- remaining activity at 1.25 µM ([1]; Well no.=7788, low concentration screen): 103%
- remaining activity at 3.75 µM ([2]; Well no.=7788, high concentration screen): 105%

Structure (SMILES): Clc1ccc(Cn2c(CN3CCCC3)nc3ccccc32)cc1 [Clemizole (hydrochloride)]
- remaining activity at 1.25 µM ([1]; Well no.=6558, low concentration screen): 93.9%
- remaining activity at 3.75 µM ([2]; Well no.=6558, high concentration screen): 93.2%

Structure (SMILES): c1ccc2c3c([nH]c2c1)CNCC3 [Noreleagnine]
- remaining activity at 1.25 µM ([1]; Well no.=3260, low concentration screen): 101%
- remaining activity at 3.75 µM ([2]; Well no.=3260, high concentration screen): 101%

Structure (SMILES): CCCCCCCCCCCCC/C=C/[C@@H](O)[C@@H](N)CO [D-erythro-Sphingosine]
- remaining activity at 1.25 µM ([1]; Well no.=7207, low concentration screen): 100%
- remaining activity at 3.75 µM ([2]; Well no.=7207, high concentration screen): 96.9%

Structure (SMILES): Nc1cccc(-c2cc3c(Oc4cccc(O)c4)ncnc3[nH]2)c1 [GSK3b Inhibitor XII, TWS119]
- remaining activity at 1.25 µM ([1]; Well no.=2608, low concentration screen): 97.8%
- remaining activity at 3.75 µM ([2]; Well no.=2608, high concentration screen): 95.8%

Structure (SMILES): O=c1ccccn1CC1(O)CCN(Cc2ccccc2)CC1 [YL0919]
- remaining activity at 1.25 µM ([1]; Well no.=8009, low concentration screen): 101%
- remaining activity at 3.75 µM ([2]; Well no.=8009, high concentration screen): 98.2%

Structure (SMILES): COc1c2occc2c(OC)c2c(=O)cc(C)oc12 [Khellin]
- remaining activity at 1.25 µM ([1]; Well no.=3436, low concentration screen): 92.2%
- remaining activity at 3.75 µM ([2]; Well no.=3436, high concentration screen): 94.1%

Structure (SMILES): CC(C)(N)C(=O)O [NSC 16590]
- remaining activity at 1.25 µM ([1]; Well no.=7781, low concentration screen): 103%
- remaining activity at 3.75 µM ([2]; Well no.=7781, high concentration screen): 108%

Structure (SMILES): N[C@@H](CCO)C(=O)O [L-Homoserine]
- remaining activity at 1.25 µM ([1]; Well no.=6821, low concentration screen): 100%
- remaining activity at 3.75 µM ([2]; Well no.=6821, high concentration screen): 101%

Structure (SMILES): NC(=O)c1ccccc1 [Benzamide]
- remaining activity at 1.25 µM ([1]; Well no.=358, low concentration screen): 96.5%
- remaining activity at 3.75 µM ([2]; Well no.=358, high concentration screen): 95.9%

Structure (SMILES): CC(C)(C)NCC(O)c1ccc(O)c(CO)c1 (stereo not shown) [Salbutamol (hemisulfate)]
- remaining activity at 1.25 µM ([1]; Well no.=7577, low concentration screen): 95.6%
- remaining activity at 3.75 µM ([2]; Well no.=7577, high concentration screen): 96.7%

Structure (SMILES): Nc1ccn([C@@H]2O[C@H](CO)[C@@H](O)[C@@H]2O)c(=O)n1 [Cytosine-1-beta-D-arabinofuranoside hydrochloride]
- remaining activity at 1.25 µM ([1]; Well no.=374, low concentration screen): 94.2%
- remaining activity at 3.75 µM ([2]; Well no.=374, high concentration screen): 89.3%

Structure (SMILES): CC(C)(C)n1nc(-c2cccc3ccccc23)c2c(N)ncnc21 [1-Naphthyl PP1 - 1-(1,1-Dimethylethyl)-3-(1-naphthalenyl)-1H-pyrazolo[3,4-d]pyrimidin-4-amine]
- remaining activity at 1.25 µM ([1]; Well no.=2674, low concentration screen): 98%
- remaining activity at 3.75 µM ([2]; Well no.=2674, high concentration screen): 98.4%

Structure (SMILES): Cc1ccc(F)cc1C(=O)Nc1ccc(C(=O)N2Cc3cccn3Cc3ccccc32)c(Cl)c1 [Lixivaptan]
- remaining activity at 1.25 µM ([1]; Well no.=6957, low concentration screen): 91.5%
- remaining activity at 3.75 µM ([2]; Well no.=6957, high concentration screen): 88.9%

Structure (SMILES): NCC[C@H](O)C(=O)N[C@@H]1C[C@H](N)[C@@H](O[C@H]2O[C@H](CN)[C@@H](O)[C@H](O)[C@H]2O)[C@H](O)[C@H]1O[C@H]1O[C@H](CO)[C@@H](O)[C@H](N)[C@H]1O [Amikacin sulfate]
- remaining activity at 1.25 µM ([1]; Well no.=5313, low concentration screen): 107%
- remaining activity at 3.75 µM ([2]; Well no.=5313, high concentration screen): 99.9%

Structure (SMILES): N#Cc1c(-c2ccccc2)no[n+]1[O-] [4-Phenyl-3-furoxancarbonitrile]
- remaining activity at 1.25 µM ([1]; Well no.=998, low concentration screen): 97.8%
- remaining activity at 3.75 µM ([2]; Well no.=998, high concentration screen): 97.8%

Structure (SMILES): C=C(C)[C@H]1CN[C@H](C(=O)O)[C@H]1CC(=O)O [Kainic acid]
- remaining activity at 1.25 µM ([1]; Well no.=829, low concentration screen): 106%
- remaining activity at 1.25 µM ([1]; Well no.=7792, low concentration screen): 105%
- remaining activity at 3.75 µM ([2]; Well no.=829, high concentration screen): 105%
- remaining activity at 3.75 µM ([2]; Well no.=3369, high concentration screen): 104%
- remaining activity at 3.75 µM ([2]; Well no.=7792, high concentration screen): 102%

Structure (SMILES): C[C@H](Nc1cc(NS(=O)(=O)N2CCC2)nc(SCc2cccc(F)c2F)n1)[C@@H](O)CO [SRT3190]
- remaining activity at 1.25 µM ([1]; Well no.=7438, low concentration screen): 104%
- remaining activity at 1.25 µM ([1]; Well no.=8507, low concentration screen): 98.1%
- remaining activity at 3.75 µM ([2]; Well no.=7438, high concentration screen): 104%
- remaining activity at 3.75 µM ([2]; Well no.=8507, high concentration screen): 97.8%

Structure (SMILES): COc1c2ccoc2cc2oc(=O)ccc12 [Bergapten]
- remaining activity at 1.25 µM ([1]; Well no.=3789, low concentration screen): 92.7%
- remaining activity at 3.75 µM ([2]; Well no.=3789, high concentration screen): 87%

Structure (SMILES): NC(=O)c1noc([C@H](CCCC2CCCCC2)CC(=O)NO)n1 [UK-383,367]
- remaining activity at 1.25 µM ([1]; Well no.=5839, low concentration screen): 102%
- remaining activity at 3.75 µM ([2]; Well no.=5839, high concentration screen): 103%

Structure (SMILES): CCCCC[C@H](O)/C=C/[C@H]1C=CC(=O)[C@@H]1C/C=C\CCCC(=O)O [Prostaglandin A2]
- remaining activity at 1.25 µM ([1]; Well no.=4467, low concentration screen): 100%
- remaining activity at 3.75 µM ([2]; Well no.=4467, high concentration screen): 96.3%

Structure (SMILES): CCOP(=O)(OCC)C(=Cc1cc(C(C)(C)C)c(O)c(C(C)(C)C)c1)P(=O)(OCC)OCC [SR 12813]
- remaining activity at 1.25 µM [1]: 96.5%
- remaining activity at 3.75 µM [2]: 103%

Structure (SMILES): Cn1cnc2c1c(=O)[nH]c(=O)n2C [Theobromine]
- remaining activity at 1.25 µM ([1]; Well no.=1479, low concentration screen): 96.7%
- remaining activity at 1.25 µM ([1]; Well no.=3491, low concentration screen): 95.7%
- remaining activity at 1.25 µM ([1]; Well no.=6387, low concentration screen): 101%
- remaining activity at 1.25 µM ([1]; Well no.=8067, low concentration screen): 106%
- remaining activity at 3.75 µM ([2]; Well no.=1479, high concentration screen): 97.3%
- remaining activity at 3.75 µM ([2]; Well no.=3491, high concentration screen): 96.4%
- remaining activity at 3.75 µM ([2]; Well no.=6387, high concentration screen): 102%
- remaining activity at 3.75 µM ([2]; Well no.=8067, high concentration screen): 104%

Structure (SMILES): Nc1ccc(C(=O)O)c(O)c1 [4-Aminosalicylic acid]
- remaining activity at 1.25 µM ([1]; Well no.=2119, low concentration screen): 99.3%
- remaining activity at 3.75 µM ([2]; Well no.=2119, high concentration screen): 101%

Structure (SMILES): Nc1cc[nH]c(=O)n1 [Cytosine]
- remaining activity at 1.25 µM ([1]; Well no.=6579, low concentration screen): 101%
- remaining activity at 3.75 µM ([2]; Well no.=6579, high concentration screen): 103%

Structure (SMILES): O=C(O)C(Cc1c[nH]c2ccccc12)N1C(=O)c2ccccc2C1=O (stereo not shown) [RG108]
- remaining activity at 1.25 µM ([1]; Well no.=4791, low concentration screen): 103%
- remaining activity at 1.25 µM ([1]; Well no.=8370, low concentration screen): 88.9%
- remaining activity at 3.75 µM ([2]; Well no.=4791, high concentration screen): 104%
- remaining activity at 3.75 µM ([2]; Well no.=8370, high concentration screen): 85.1%
